Assay results: ChEMBL document CHEMBL5728073, “Compounds that inhibit Mcl-1 protein” (2020)

Test: Time-Resolved Fluorescence Resonance Energy Transfer (TR-FRET) Assay: The inhibition of the Mcl-1/Bim interaction was measured using a time-resolved fluorescence resonance energy transfer (TR-FRET) assay. The recombinant human Mcl-1 (C-terminally 6ÃHis tagged Mcl-1 containing residues 171-327) was generated at Amgen Inc (Thousand Oaks, Calif.). A biotinylated peptide derived from human Bim …
Description: Time-Resolved Fluorescence Resonance Energy Transfer (TR-FRET) Assay: The inhibition of the Mcl-1/Bim interaction was measured using a time-resolved fluorescence resonance energy transfer (TR-FRET) assay. […] A biotinylated peptide derived from human Bim (residues 51-76) was purchased from CPC Scientific (San Jose, Calif.). The TR-FRET assay was conducted in a 384-well white OptiPlate (PerkinElmer, Waltham, Mass.) in a total volume of 40 uL. […] The reaction plates were further incubated overnight and then were read on an EnvisionÂ multimode reader (PerkinElmer). […] The IC50 values of test compounds were determined from duplicate data by analyzing competition curves using a four-parameter sigmoidal model in GraphPad Prism.

| IC50 [nM] | SMILES |
| --- | --- |
| 0.494 | CO[C@@]1(CN2CCN3CCC(F)(F)C[C@@H]3C2)/C=C\C[C@H](C)[C@@H](C)S(=O)(=O)NC(=O)c2ccc3c(c2)N(C[C@@H]2CC[C@H]21)C[C@@]1(CCCc2cc(Cl)ccc21)CO3 |
| 0.225 | CCCCN1CCN(C[C@]2(OC)/C=C/C[C@H](C)[C@@H](C)S(=O)(=O)NC(=O)c3ccc4c(c3)N(C[C@@H]3CC[C@H]32)C[C@@]2(CCCc3cc(Cl)ccc32)CO4)CC1 |
| 0.097 | C[C@@H]1[C@@H](C)C/C=C\[C@](O)(CN2CCN3CCCC[C@@H]3C2)[C@@H]2CC[C@H]2CN2C[C@@]3(CCCc4cc(Cl)ccc43)COc3ccc(cc32)C(=O)NS1(=O)=O |
